From patent US20060210554A1, “Detection of cholesterol ozonation products” (priority 2003, published 2006)

How the values were obtained:
[1] = Aldolization of ketoaldehyde 4a with amino acids (1H NMR); assay type: physicochemical; conditions: L-Lys(OEt).2HCl, 1 equivalent, 100 h, DMSO-d6/D2O
Procedure: Aldolization of ketoaldehyde 4a with amino acids. […] To this solution was added 1 equivalent of either: a) L-proline, b) glycine, c) L-lysine hydrochloride or d) L-lysine ethyl ester dihydrochloride. At time points the samples were analyzed by ^1H NMR.

apoB-100 of human LDL = apoB-100 of human LDL (Homo sapiens, UniProt P04114); test: Circular dichroism of LDL secondary structure; conditions: LDL 100 μg/ml, compound 10 μM, PBS pH 7.4, 37° C., up to 48 h; for random coil of LDL protein after incubation: normal LDL 27±2%; for a helical structure of LDL protein after incubation: normal LDL ~40±2%
Chain of apoB-100 of human LDL (P04114 28-4563): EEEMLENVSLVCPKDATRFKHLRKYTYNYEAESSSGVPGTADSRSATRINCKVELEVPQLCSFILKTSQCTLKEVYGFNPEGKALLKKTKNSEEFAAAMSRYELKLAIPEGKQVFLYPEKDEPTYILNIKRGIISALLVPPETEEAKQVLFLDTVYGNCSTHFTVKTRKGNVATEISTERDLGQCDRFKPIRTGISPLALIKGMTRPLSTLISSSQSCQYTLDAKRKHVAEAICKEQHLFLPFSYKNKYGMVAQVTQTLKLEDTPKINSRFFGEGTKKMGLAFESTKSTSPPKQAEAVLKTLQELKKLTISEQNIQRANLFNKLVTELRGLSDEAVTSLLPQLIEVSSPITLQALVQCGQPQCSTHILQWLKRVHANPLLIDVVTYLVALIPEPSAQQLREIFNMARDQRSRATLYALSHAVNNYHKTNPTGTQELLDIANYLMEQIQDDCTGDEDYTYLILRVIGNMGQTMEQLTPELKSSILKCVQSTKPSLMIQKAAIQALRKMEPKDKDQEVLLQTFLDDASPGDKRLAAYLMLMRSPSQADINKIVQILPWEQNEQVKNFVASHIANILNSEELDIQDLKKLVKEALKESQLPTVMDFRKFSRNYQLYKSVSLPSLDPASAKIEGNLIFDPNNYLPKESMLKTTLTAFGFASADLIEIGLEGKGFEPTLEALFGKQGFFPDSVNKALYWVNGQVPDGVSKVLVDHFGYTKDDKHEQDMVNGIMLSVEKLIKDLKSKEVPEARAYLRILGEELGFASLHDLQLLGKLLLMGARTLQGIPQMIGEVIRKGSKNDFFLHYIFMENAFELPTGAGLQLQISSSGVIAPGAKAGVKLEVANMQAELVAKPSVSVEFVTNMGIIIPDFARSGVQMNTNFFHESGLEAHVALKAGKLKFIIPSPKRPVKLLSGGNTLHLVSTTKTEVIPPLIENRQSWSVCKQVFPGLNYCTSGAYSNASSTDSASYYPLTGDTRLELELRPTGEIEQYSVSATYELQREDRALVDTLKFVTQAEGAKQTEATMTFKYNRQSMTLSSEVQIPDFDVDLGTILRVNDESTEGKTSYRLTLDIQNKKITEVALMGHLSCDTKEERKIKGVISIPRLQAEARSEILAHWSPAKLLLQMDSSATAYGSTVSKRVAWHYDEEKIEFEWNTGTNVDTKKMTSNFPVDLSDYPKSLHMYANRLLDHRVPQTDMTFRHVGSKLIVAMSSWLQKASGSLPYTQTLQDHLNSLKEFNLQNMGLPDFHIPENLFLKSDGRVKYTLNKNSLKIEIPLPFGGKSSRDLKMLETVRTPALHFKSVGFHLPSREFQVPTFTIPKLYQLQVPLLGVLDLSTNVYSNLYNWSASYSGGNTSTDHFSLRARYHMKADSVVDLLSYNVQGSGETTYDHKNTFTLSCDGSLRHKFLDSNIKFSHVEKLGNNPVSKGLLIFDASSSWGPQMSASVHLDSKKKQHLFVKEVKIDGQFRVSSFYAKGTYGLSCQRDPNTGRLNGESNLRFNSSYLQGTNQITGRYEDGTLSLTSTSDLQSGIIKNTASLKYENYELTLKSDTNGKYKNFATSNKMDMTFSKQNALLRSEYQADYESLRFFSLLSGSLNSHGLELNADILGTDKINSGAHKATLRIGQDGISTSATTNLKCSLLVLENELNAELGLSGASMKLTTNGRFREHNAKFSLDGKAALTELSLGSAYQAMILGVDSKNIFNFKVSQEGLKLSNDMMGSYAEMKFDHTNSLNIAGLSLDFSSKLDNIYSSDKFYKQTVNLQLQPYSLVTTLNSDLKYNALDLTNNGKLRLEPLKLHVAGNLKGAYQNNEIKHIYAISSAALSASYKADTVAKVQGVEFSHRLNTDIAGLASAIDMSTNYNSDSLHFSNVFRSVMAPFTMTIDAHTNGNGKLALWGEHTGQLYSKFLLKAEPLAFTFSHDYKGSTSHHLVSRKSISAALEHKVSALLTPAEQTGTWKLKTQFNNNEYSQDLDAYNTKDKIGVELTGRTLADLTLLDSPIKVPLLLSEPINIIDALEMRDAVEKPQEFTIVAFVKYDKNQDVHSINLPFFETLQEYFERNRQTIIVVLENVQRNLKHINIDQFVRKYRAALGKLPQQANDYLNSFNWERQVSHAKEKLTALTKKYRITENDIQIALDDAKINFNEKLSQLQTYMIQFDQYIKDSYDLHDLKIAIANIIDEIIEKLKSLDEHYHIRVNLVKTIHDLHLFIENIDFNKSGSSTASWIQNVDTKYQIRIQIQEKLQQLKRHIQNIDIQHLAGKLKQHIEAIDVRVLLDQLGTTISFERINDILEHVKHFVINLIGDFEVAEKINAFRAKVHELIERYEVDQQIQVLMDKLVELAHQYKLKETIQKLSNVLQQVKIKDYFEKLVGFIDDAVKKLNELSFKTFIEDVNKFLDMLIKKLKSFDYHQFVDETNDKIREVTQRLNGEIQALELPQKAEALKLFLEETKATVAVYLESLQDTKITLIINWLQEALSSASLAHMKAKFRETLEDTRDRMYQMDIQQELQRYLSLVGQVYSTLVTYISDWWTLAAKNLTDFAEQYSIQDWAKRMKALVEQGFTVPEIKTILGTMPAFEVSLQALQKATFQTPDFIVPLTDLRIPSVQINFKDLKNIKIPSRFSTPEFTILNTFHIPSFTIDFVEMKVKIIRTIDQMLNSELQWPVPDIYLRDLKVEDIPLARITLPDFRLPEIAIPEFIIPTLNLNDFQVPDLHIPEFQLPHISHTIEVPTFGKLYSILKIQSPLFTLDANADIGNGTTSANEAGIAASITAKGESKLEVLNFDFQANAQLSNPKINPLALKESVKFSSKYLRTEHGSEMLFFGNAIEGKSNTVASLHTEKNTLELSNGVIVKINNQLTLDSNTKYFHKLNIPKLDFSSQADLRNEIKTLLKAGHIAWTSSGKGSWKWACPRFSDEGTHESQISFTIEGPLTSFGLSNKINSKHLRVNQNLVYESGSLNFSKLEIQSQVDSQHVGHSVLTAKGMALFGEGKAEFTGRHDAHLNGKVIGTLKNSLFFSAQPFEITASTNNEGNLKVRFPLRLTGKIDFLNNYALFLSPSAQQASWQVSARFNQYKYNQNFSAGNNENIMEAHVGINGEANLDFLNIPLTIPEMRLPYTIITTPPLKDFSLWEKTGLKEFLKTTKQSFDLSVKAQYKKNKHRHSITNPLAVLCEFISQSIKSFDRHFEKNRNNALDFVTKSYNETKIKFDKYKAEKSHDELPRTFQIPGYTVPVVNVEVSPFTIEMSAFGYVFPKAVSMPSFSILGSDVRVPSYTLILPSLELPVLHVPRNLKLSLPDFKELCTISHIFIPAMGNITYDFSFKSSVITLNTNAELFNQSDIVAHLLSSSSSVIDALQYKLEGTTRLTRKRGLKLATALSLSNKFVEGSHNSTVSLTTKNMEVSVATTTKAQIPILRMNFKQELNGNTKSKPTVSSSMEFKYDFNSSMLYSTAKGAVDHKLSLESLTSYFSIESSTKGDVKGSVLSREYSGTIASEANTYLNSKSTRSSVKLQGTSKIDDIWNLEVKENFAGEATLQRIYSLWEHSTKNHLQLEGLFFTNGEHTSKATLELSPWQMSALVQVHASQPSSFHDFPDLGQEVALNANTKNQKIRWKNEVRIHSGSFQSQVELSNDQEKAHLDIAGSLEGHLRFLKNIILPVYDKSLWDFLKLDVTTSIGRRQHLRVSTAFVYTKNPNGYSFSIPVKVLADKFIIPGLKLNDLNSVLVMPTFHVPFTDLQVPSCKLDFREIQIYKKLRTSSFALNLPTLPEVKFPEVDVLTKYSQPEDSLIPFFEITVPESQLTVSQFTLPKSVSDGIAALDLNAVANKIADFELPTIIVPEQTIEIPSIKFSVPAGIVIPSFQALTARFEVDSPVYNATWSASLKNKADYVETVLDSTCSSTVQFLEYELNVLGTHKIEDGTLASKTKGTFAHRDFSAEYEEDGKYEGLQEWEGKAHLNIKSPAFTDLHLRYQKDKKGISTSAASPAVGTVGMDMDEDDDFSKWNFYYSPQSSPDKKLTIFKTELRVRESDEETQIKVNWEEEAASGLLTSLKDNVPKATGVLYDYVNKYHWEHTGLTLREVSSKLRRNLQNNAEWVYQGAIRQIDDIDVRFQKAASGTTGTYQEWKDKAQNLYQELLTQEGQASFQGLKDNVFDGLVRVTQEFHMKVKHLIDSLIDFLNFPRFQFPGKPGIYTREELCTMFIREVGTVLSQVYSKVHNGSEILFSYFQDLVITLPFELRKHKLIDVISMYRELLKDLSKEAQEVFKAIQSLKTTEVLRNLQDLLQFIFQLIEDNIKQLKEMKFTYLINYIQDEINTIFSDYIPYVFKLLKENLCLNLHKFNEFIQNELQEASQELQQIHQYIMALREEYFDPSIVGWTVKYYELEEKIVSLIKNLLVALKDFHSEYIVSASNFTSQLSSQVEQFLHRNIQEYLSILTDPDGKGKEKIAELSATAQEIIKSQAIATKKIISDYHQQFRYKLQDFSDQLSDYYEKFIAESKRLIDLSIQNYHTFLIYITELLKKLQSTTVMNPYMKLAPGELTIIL
Procedure: Circular dichroism. […] Spectra were recorded in the peptidic range (200-260 nm). To increase the signal-to-noise ratio, multiple spectra (three) were averaged for each measurement.

Row | conversion of 4a into 5a [1] | Structure (SMILES) | random coil of LDL protein after incubation (apoB-100 of human LDL) | a helical structure of LDL protein after incubation (apoB-100 of human LDL)
1 | 62 % conversion | CC(C)CCC[C@@H](C)[C@H]1CCC2C(CC=O)C([C@@]3(C)CC[C@H](O)CC3=O)CC[C@@]21C (some centres unmarked) [4a, 3βHydroxy-5-oxo-5,6-secocholestan-6-al] | ~39±2% | ~23±5%
2 | – | CC(C)CCC[C@@H](C)[C@H]1CCC2C3C(CC[C@@]21C)[C@@]1(C)CC[C@H](O)C[C@@]1(O)[C@@H]3C=O (stereo partly drawn) [5a, 3β-Hydroxy-5β-hydroxy-B-norcholestane-6β-carboxaldehyde] | 32±4% | ~20±2%
